Experimental data published in US6548715B1, “Structural analogues of vitamin D” (Laboratoire Theramex S.A., priority 1993, dated 2003).

What was measured:
[1] = molecular target: T1, human DBP (vitamin D binding protein) (Homo sapiens, UniProt P02774); experiment: Relative affinity for purified human vitamin D-binding protein (hDBP); settings: % of the activity of 1α,25-(OH)2D3 at 50% of its activity (B50)
T1 sequence (P02774 17-474): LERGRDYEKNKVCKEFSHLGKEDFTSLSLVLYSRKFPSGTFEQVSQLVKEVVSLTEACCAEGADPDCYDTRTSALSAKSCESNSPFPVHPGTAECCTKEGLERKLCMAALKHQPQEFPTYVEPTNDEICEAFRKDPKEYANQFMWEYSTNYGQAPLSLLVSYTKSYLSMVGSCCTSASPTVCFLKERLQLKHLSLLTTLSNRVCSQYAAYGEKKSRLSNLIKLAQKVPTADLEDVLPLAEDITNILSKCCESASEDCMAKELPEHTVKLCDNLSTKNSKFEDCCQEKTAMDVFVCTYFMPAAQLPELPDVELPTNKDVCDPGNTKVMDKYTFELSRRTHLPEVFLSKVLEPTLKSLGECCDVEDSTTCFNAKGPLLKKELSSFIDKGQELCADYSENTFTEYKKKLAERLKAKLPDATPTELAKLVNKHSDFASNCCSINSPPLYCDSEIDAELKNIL

HL-60 cells = experiment: HL-60 cell differentiation (NBT reduction); format: cell-based; settings: % of the activity of 1α,25-(OH)2D3 at 50% of its activity (B50); human leukemia cells
Description: (§1) HL-60 cells were seeded at 1.2×10^5 cells/ml and 1α,25-(OH)2D3 or its anologs were added in ethanol (final concentration <0.2%) in RPMI 1640 medium supplemented with 10% heat-inactivated fetal calf serum (FCS) for 4 d at 37° C. Cells were then assayed for maturation by NBT reduction assay as described (22) using a hemacytometer, or for proliferation by cell counting and [^3H] thymidine incorporation. MG 63 cells, seeded at 5×10^3 cells/ml in 96 well flat bottomed culture plates (Falcon, Becton Dickinson, N.J.) in a volume of 0.2 ml of DMEM and 2% FCS, were incubated with 1α,25-(OH)2D3 or its analogues for 72 h. Osteocalcin was then measured in the culture medium using a homologous human osteocalcin RIA (39). Breast carcinoma cells (MCF-7 or GR) were grown in DMEM/nut.mix F-12 (HAM) medium supplemented with 10% FCS. Cells (5000/Well) were incubated during 24 h in 96 well tissue culture plates (Falcon 3072) followed by a 72 h incubation with/without 1α,25-(OH)2D3 or analogues. The cells were then incubated with [^3H]thymidine (1 μCi/well) for 4 h and harvested thereafter in NaOH (0.1 M) and the radioactivity counted. The protein content of the cells was measured by the Pierce BCA protein assay (Rockford, Ill.).

MG-63 cells = experiment: MG-63 osteosarcoma cells, osteocalcin secretion; format: cell-based; settings: % of the activity of 1α,25-(OH)2D3 at 50% of its activity (B50); human osteosarcoma cells
Description: as §1

vitamin D receptor = molecular target: T2, vitamin D receptor (Sus scrofa, UniProt A3RGC1); settings: % of the activity of 1α,25-(OH)2D3 at 50% of its activity (B50); 1α,25-(OH)2D3 assigned 100%
T2 sequence (A3RGC1 1-427): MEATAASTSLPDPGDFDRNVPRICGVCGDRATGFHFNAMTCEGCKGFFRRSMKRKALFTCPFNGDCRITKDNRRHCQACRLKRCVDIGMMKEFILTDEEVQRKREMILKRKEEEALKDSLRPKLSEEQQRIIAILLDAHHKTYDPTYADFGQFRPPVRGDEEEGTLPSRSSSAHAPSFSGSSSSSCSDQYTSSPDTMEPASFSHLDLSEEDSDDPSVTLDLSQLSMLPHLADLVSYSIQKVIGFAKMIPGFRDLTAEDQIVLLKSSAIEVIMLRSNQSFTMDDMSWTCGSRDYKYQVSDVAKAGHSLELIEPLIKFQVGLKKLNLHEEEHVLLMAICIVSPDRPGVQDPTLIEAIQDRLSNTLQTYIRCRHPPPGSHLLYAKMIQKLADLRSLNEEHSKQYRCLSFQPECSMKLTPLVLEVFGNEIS

MCF-7 cells = experiment: MCF-7 breast cancer cell proliferation ([3H]thymidine incorporation); format: cell-based; settings: % of the activity of 1α,25-(OH)2D3 at 50% of its activity (B50); human breast cancer cells
Description: as §1

[2] = test system: human normal keratinocytes; experiment: Human keratinocyte proliferation ([3H]thymidine incorporation); format: cell-based; settings: % of the activity of 1α,25-(OH)2D3 at 50% of its activity (B50)
Description: to evaluate the effects on cell proliferation of non-malignant cells and especially to evaluate their potential for use for dermatological disorders, the new compounds were tested in cultures of human normal keratinocytes.
Human skin keratinocytes were isolated and cultured using a modification of the method of Kitano and Okada (38).
Briefly, the skin from biopsies of patients with breast tumors, was cutted into pieces measuring 3-5 mm and soaked overnight at 4° C. in a solution of dispase (20 Boehringer units/ml). The epidermis was peeled from the dermis, washed with calcium- and magnesium-free phosphate buffered saline and incubated and shaked in a 0.25% trypsin solution for 10 min at room temperature. The reaction was then stopped by addition of PBS containing 10% FCS. The cells were collected after centrifugation at 4° C. for 10 min at 800 rpm. After an additional washing with PBS, the pellet was suspended in culture medium into 25 cm^2 primaria flasks from Becton Dickinson. The keratinocytes were cultivated at 37° C. in an atmosphere of 5% CO2 in air. A few hours later, the medium was replaced by new one. The medium [Keratinocyte Medium from Gibco containing Epidermal Growth Factor (5 ng/ml), Bovine Pituitary Extract (35-50 μg/ml) and antibiotics] was renewed every other day until confluency.
Keratinocytes were cultured in 96-well plate and, after 24 hours, were treated with various concentrations of vitamin D analogues, followed by pulse labelling with 1 μCi of [^3H]thymidine for 3 hours. Cultures were washed 3 times with PBS and twice with 10% (v/v) ice cold trichloroacetic acid. Cells were solubilized with 1 M NaOH and radioactivity was counted in a scintillation counter.

[3] = test system: vitamin D-deficient chicks; experiment: Calcemic effect in vitamin D-deficient chicks (serum calcium); format: in vivo, chick; settings: % of the activity of 1α,25-(OH)2D3 at 50% of its activity (B50); vitamin D-deficient chicks injected 10 consecutive days
Description: The antirachitic activity of the analogues was tested in 3 weeks old vitamin D-deficient chicks injected for 10 consecutive days with 1α,25-(OH)2D3 or its analogues (22,23). Serum calcium (by atomic absorptiometry) and osteocalcin (by specific RIA), duodenal calbindin D-28K (by RIA) and bone calcium content were measured. The hypercalcemic effect of the most interesting anologues was also tested in vitamin D-replete normal NMRI mice by daily sc injection of 1α,25-(OH)2D3, its analogues or the solvent for 7 consecutive days, using serum, bone and urinary calcium excretion and serum osteocalcin (by specific mouse RIA) as parameters (40).

Compound	Affinity for human DBP [1]	Cell differentation/cell proliferation HL-60 (HL-60 cells)	Cell differentation/cell proliferation MG-63 (MG-63 cells)	Affinity for pig receptor (vitamin D receptor)	Cell differentation/cell proliferation MCF-7 (MCF-7 cells)	Cell differentation/cell proliferation keratinocytes [2]	Ca serum chick [3]
C=C1C(=CC=CCC2(C)CCC(CCCCC(O)(CC)CC)C2(C)C)CC(O)CC1O (stereo not drawn) [Compound 20]	8%	75%	30%	28%	–	–	–
C=C1C(=CC=CCC2(C)CCC(OCCC(O)(CC)CC)C2(C)C)CC(O)CC1O (stereo not drawn) [Compound 18]	0%	10%	–	4%	40%	35%	<0.1%
CC(CCCC(C)(C)O)C1CCC2C(=CC=C3CC(O)CC(O)C3)CCC(O)C21 (stereo not drawn) [Compound 2]	0%	75%	4.5%	0%	–	–	–
CC(CC#CC1(C)CO1)C1CCC2C(=CC=C3CC(O)CC(O)C3)CCCC21C (mixture of isomers) [Compound 45]	1.5%	80%	10%	2.5%	20%	–	1%
C=C1/C(=C\C=C2/CCC[C@](C)([C@H](C)[C@H](C)CC[C@@H](O)C(C)C)C2)C[C@@H](O)C[C@@H]1O [Compound 5]	10%	4000%	1000%	80%	6000%	5000%	9%
C=C1/C(=C\C=C\[C@@H]2CC[C@](C)(CCCCC(O)(CC)CC)C2(C)C)C[C@@H](O)C[C@@H]1O [Compound 38]	2%	100%	–	80%	–	–	2%
C=C1/C(=C\C=C2/CCC[C@](C)([C@H](C)[C@H](C)CCCC(C)(C)O)C2)C[C@@H](O)C[C@@H]1O [Compound 7]	20%	1000%	700%	60%	6000%	–	5%
C=C1C(=CC=C2CCCC3C2CCC3C(C)CCCC(C)(C)O)CC(O)CC1O (stereo not drawn) [Compound 3]	10%	720%	75%	100%	–	–	–
CC(CCCC(C)(C)O)C(C)C1(C)CCCC(=CC=C2CC(O)CC(O)C2)C1 (stereo not drawn) [Compound 8]	3%	>1000%	300%	45%	3000%	–	<0.1%
C=C1C(=CC=CC2CCCC(C(C)CCCC(C)(C)O)C2(C)C)CC(O)CC1O (stereo not drawn) [Compound 56]	70%	100%	–	–	–	–	–
CC(CCCCC(C)(C)O)C1CCC2C(=CC=C3CC(O)CC(O)C3)CCCC21C (stereo not drawn) [Compound 54]	1%	30%	10%	20%	–	–	0.4%
CCC(O)(CC)CCCCC(C)C1CCC2C(=CC=C3CC(O)CC(O)C3)CCCC21C (stereo not drawn) [Compound 55]	0%	65%	3%	30%	–	–	0.3%
C=C1C(=CC=CCC2(C)CCC(CCCC(O)(CC)CC)C2(C)C)CC(O)CC1O (stereo not drawn) [Compound 16]	0%	12%	10%	15%	–	30%	0.2%
CCC(O)(C=CC=CC(C)C1CCC2C(=CC=C3CC(O)CC(O)C3)CCCC21C)CC (stereo not drawn) [Compound 50]	0%	40%	–	9%	100%	60%	0.1%
C=C1C(=CC=CCC2(C)CCC(CCCCC(C)(C)O)C2(C)C)CC(O)CC1O (stereo not drawn) [Compound 19]	50%	10%	30%	13%	–	–	–
